Data from patent US12448374B2, “Inhibitors of SARM1” (Disarm Therapeutics, Inc., priority 2018, dated 2025).

target: T1, SARM1 SAM-TIR (Homo sapiens, UniProt Q6SZW1); assay: SAM-TIR SARM1 IC50 assay (NADase activity, NAD+ cleavage); assay type: biochemical; conditions: SAM-TIR lysate 5 μg/mL, 2 h pre-incubation, 5 μM NAD+, RapidFire MS readout
T1 construct: This assay makes use of a fragment of the SARM1 molecule encompassing the SAM and TIR domains; made in house; host or cells: NRK1-HEK293T cells (transient transfection; clarified sonicated lysate used without purification)
T1 sequence (Q6SZW1 409-724 limits assumed): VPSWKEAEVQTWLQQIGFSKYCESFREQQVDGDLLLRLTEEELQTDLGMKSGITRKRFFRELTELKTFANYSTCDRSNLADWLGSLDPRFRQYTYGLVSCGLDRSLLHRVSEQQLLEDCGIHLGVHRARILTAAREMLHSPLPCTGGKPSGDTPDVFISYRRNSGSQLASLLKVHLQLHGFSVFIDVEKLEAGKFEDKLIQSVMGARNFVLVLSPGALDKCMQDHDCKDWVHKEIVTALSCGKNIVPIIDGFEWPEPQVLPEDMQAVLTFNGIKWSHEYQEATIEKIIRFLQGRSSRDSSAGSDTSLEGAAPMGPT
Description: This Example describes an assay of SAM-TIR NADase activity and use of this assay to measure the efficacy of compounds of Formula I to block SARM1 mediated NAD+ cleavage. This assay is optimized in such a way as to characterize the efficacy of the compounds in Formula I to inhibit SARM1 activity and to calculate an IC50 value for each compound. This assay makes use of a fragment of the SARM1 molecule encompassing the SAM and TIR domains.
NRK1-HEK293T cells refers to a cell line that has been stably e transfected with an FCIV expression vector that expresses human Nicotinamide Riboside Kinase 1 (NRK1), an enzyme that converts the NAD+ biosynthetic precursor nicotinamide riboside (NR) to NMN, the immediate precursor of NAD+. When provided with NR this cell line augments intracellular NAD+ levels and maintains cell viability, when expressing SARM1 SAM-TIR. FIG. 2 illustrates that a NRK1-HEK293T stable line with NR supplementation maintains higher NAD+ levels upon SARM1-TIR expression. Data was generated from three independent NAD+ measurements from three independent transfection experiments, and normalized to data from a non-transfected experiment run concurrently. Data are presented as mean±SEM; Error bars: SEM; ***P<0.001 two tailed student's t-test.
NRK1-HEK293T cells were seeded onto 150 cm^2 plates at 20×10^6 cells per plate. The next day, the cells were transfected with 15 μg FCIV-SST (SAM-TIR expression plasmid, SEQ ID NO: 1) using X-[…]™ 9 DNA Transfection Reagent (Roche product #06365787001).
The cultures were supplemented with 1 mM NR at time of transfection to minimize toxicity from SAM-TIR overexpression. Forty-eight hours after transfection, cells were harvested, pelleted by centrifugation at 1,000 rpm (Sorvall ST 16R centrifuge, Thermo Fisher), and washed once with cold PBS (0.01 M phosphate buffered saline NaCl 0.138 M; KCl 0.0027 M; pH 7.4). The cells were resuspended in PBS with protease inhibitors (cOmplete™ protease inhibitor cocktail, Roche product #11873580001) and cell lysates were prepared by sonication (Branson Sonifer 450, output=3, 20 episodes of stroke). The lysates were centrifuged (12,000×g for 10 min at 4° C.) to remove cell debris and the supernatants (containing SARM1 SAM-TIR protein) were stored at −80° C. for later use in the in vitro SARM1 SAM-TIR NADase assay (see below). Protein concentration was determined by the Bicinchoninic (BCA) method and used to normalize lysate concentrations.
The enzymatic assay was performed in a 384-well polypropylene plate in Dulbecco's PBS buffer in a final assay volume of 20 μL. SAM-TIR lysate with a final concentration of 5 μg/mL was pre-incubated with the respective compound at 1% DMSO final assay concentration over 2 h at room temperature. The reaction was initiated by addition of 5 μM final assay concentration of NAD+ as substrate. After a 2 hr room temperature incubation, the reaction was terminated with 40 μL of stop solution of 7.5% trichloroactetic acid in acetonitrile. The NAD+ and ADPR concentrations were analyzed by a RapidFire High Throughput Mass Spectrometry System (Agilent Technologies, Santa Clara, CA) using an API4000 triple quadrupole mass spectrometer (AB Sciex Framingham, MA).

Row | Structure (SMILES) | IC50 [µM]
1 | Brc1cccc2[nH]ncc12 [Example 5] | 10 to 30
2 | Ic1c[nH]c2cnccc12 [Example 4] | < 10
3 | COCCn1cc(Br)c2ccncc21 [Example 12] | 30 to 50
4 | Brc1cccc2nncn12 [Example 3] | > 50
5 | Clc1nccc2c(Br)c[nH]c12 [Example 6] | < 10
6 | CC(C)n1cc(Br)c2ccncc21 [Example 13] | 30 to 50
7 | Clc1c[nH]c2cnccc12 [Example 9] | < 10
8 | NC(=O)Cn1cc(Br)c2ccncc21 [Example 11] | > 50
9 | Cn1cc(I)c2ccncc21 [Example 15] | < 10
10 | CCn1cc(I)c2ccncc21 [Example 14] | < 10
11 | Brc1c[nH]c2cnccc12 [Example 7] | < 10
12 | COCCCn1cc(Br)c2ccncc21 [Example 10] | > 50

More lines, now with the values ahead:

Row | IC50 [µM] | Structure (SMILES)
13 | < 10 | Brc1csc2cnncc12 [Example 43]
14 | < 10 | Cn1cnc2cnccc21 [Example 28]
15 | 30 to 50 | O=S1(=O)C=C(Br)c2ccncc21 [Example 40]
16 | 10 to 30 | Brc1n[nH]c2cnccc12 [Example 31]
17 | < 10 | c1cc2ccsc2cn1 [Example 33]
18 | > 50 | Brc1c[nH]c2nnccc12 [Example 44]
19 | 30 to 50 | Cc1ccc2nc[nH]c2c1Br [Example 29]
20 | < 10 | Cn1cc(Br)c2ccncc21 [Example 16]
21 | < 10 | Ic1csc2cnncc12 [Example 41]
22 | > 50 | N#Cc1cc2ccncc2[nH]1 [Example 37]
23 | > 50 | Oc1nnc2cnccn12 [Example 27]
24 | < 10 | Brc1cncc2[nH]ncc12 [Example 32]
25 | > 50 | Ic1c[nH]c2nnccc12 [Example 42]
26 | < 10 | Brc1csc2cnccc12 [Example 30]
27 | > 50 | CCOC(=O)c1[nH]c2cnccc2c1Br [Example 38]

tested on: mouse dorsal root ganglion (DRG) neurons; assay: Axon degeneration assay in mouse DRG drop culture; assay type: cell-based; conditions: DRG neuron, protection of axon fragmentation, axonal transection or chemotoxic stimuli
Method: This Example illustrates an in vitro axon degeneration assay used to characterize compounds of Formula I. This assay is used to test the efficacy of the compounds of Formula I to prevent axonal degeneration in a mouse dorsal root ganglion (DRG) drop culture.
Mouse DRG Drop culture: Mouse dorsal root ganglion neurons (DRGs) were dissected out of E12.5 CD1 mice (50 ganglion per embryo) and incubated with 0.5% Trypsin solution containing 0.02% EDTA (Gibco) at 37° C. for 15 min. The cells were then triturated by gentle pipetting and washed 3 times with DRG growth medium (Neurobasal medium (Gibco) containing 2% B27 (Invitrogen), 100 ng/ml 2.5S NGF (Harland Bioproducts), 1 mM 5-fluoro-2′ deoxyuridine (Sigma), penicillin, and streptomycin). Cells were suspended in the DRG growth medium. DRG drop cultures were created by spotting 5000 cells/well into the center of each well of a 96-well tissue culture plate coated with poly-D-Lysine (0.1 mg/ml; Sigma) and laminin ([…]; Invitrogen). Cells were allowed to adhere to the plates in a humidified tissue culture incubator (5% CO2) for 15 min and then DRG growth medium was gently added ([…]).
Axon degeneration assay: Axonal degeneration was stimulated either by manual axonal transection using a scalpel blade, or chemotoxic stimuli. After an appropriate experimental time period, the DRG cultures were fixed in 1% PFA plus sucrose and kept in the fridge prior to imaging. Bright-field images of DRG axons and cell bodies were collected using the 20× water immersion lens of a Phenix automated confocal microscope (PerkinElmer) and quantitation of axonal performed using in-house developed scripts (Acapella, PerkinElmer).

Row | Structure (SMILES) | IC50 [µM]
28 | Ic1c[nH]c2cnccc12 [Example 4] | < 10
29 | Brc1c[nH]c2cnccc12 [Example 7] | < 10
30 | Brc1csc2cnccc12 [Example 30] | 10 to 30
